# Laboratory results taken from patent publication US12421205B2, “GLP-1 receptor agonist” (HYUNDAI PHARM CO., LTD., priority 2019, dated 2025).
# Columns and labels:
# [1] = molecular target: T1, human GLP-1 receptor (Homo sapiens, UniProt P43220); assay: cAMP activity test (cAMP dynamic HTRF kit) in CHO-K1/GLP-1 receptor-expressing cells; format: cell-based; details: cAMP activity, CHO-K1/GLP-1 receptor-expressing cells; read-out: EC50
# T1 construct: host or cells: CHO-K1
# Procedure: The next day, the medium was removed, and a 50 uL of HBSS medium containing 0.1% BSA, 0.5 mM IBMX, and 5 mM HEPES was added to each well. […] The cAMP activity was measured according to the manufacturer's instructions using the cAMP dynamic HTRF kit (Cisbio, 62AM4PEC). After incubation, the medium was discarded, and the cells were lysed. cAMP-d2 and anti-cAMP cryptate conjugate were added thereto and reacted for 3 hours. […] Intracellular cAMP competes with cAMP-d2 for anti-cAMP cryptate, and the measured signal of fluorescence resonance energy transfer (FRET) is inversely proportional to intracellular cAMP.
# [2] = molecular target: T2, hERG (Homo sapiens, UniProt Q12809); assay: hERG inhibition test (Predictor hERG Fluorescence Polarization assay kit); format: binding; details: probe kit Tracer (fluorescent hERG ligand), hERG % inhibition at 10 uM, relative to E-4031 and solvent control
# T2 construct: purchased Invitrogen PV5365
# Procedure: To measure the hERG (Human ether-a-go-go-related gene) channel inhibition rate of the compound according to the present invention, the following test was performed using a Predictor hERG Fluorescence Polarization assay kit (Invitrogen, PV5365).
# Specifically, a test substance was dissolved in DMSO to prepare a 50 mM solution. A 4 mM solution was prepared by diluting the 50 mM solution with DMSO in a U bottom 96-well plate (SPL, 34096), and was then diluted 100-fold with a test buffer to prepare a 40 uM (4×) solution. The positive control E-4031 (3 mM) provided in the kit was diluted 25-fold with a test buffer to prepare a 120 uM solution) 5 uL of the diluted test substance solution was dispensed into a 384-well assay plate (corning, 3677). hERG Membrane (2×) and Tracer (4×) provided in the kit were respectively added at 10 uL and 5 uL, and then subjected to the reaction at room temperature for 2.5 hours. After completion of the reaction, fluorescence polarization (mP) was measured with a Multimode Plate Reader (Perkin-Elmer, Envision) (excitation wavelength of 531 nm, and emission wavelength 579 nm). The value of the percent inhibitory activity (% inhibition) at 10 uM of each test substance was calculated by the following equation, and the results are shown in Table 2: (% inhibition)=100−{(mP of the compound according to the present invention−E-4031 mP)/(mP of the solvent control−E-4031 mP)}×100
# T1 sequence (P43220 24-463): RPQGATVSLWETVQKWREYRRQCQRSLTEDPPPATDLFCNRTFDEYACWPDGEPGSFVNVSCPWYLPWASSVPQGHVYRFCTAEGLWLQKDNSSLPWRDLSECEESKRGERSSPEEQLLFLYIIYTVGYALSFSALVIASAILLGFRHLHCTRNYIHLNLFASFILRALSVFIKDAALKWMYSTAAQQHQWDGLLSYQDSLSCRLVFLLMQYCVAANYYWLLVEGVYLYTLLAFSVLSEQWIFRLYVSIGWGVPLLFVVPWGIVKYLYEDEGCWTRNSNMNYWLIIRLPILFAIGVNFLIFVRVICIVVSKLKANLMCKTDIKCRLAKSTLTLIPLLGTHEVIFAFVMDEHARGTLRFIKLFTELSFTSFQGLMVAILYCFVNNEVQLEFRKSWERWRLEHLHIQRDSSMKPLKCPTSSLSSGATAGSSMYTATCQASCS
# T2 sequence (Q12809 whole entry): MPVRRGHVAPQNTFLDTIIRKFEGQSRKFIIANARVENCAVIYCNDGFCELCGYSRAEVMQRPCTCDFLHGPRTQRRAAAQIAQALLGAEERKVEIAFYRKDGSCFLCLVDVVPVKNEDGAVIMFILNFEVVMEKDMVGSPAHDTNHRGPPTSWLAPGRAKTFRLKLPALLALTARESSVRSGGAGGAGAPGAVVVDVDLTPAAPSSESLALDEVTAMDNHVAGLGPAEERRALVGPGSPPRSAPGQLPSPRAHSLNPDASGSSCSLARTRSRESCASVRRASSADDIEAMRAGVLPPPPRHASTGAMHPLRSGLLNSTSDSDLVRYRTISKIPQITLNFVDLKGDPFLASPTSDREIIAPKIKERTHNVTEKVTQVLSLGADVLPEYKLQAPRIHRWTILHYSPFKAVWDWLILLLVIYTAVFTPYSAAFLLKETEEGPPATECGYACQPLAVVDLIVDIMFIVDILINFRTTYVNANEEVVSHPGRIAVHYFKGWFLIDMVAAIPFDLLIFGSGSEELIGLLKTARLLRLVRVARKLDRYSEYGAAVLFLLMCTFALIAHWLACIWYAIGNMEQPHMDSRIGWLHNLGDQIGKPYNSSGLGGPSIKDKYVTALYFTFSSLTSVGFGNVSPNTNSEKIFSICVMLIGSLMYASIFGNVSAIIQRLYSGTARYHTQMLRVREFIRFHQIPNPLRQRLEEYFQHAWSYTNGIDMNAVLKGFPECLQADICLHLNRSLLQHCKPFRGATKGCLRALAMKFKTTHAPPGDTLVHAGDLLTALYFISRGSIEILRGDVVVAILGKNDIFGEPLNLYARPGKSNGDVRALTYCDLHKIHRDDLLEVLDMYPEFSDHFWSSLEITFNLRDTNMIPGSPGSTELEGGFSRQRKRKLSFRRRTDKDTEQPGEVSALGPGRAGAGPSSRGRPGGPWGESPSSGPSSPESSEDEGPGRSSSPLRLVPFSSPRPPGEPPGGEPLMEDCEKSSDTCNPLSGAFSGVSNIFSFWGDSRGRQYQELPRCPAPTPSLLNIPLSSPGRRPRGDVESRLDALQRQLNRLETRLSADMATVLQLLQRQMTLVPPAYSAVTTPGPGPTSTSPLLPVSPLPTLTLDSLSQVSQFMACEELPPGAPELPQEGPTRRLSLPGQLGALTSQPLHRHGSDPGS
Structure (SMILES),EC50 [1],"inhibition at 2.5 h, 10 µM [2]"
"COCCn1c(Cn2ccc(-c3cccc(OCc4ccc(C#N)cc4F)c3)cc2=O)nc2ccc(C(=O)O)cc21 [Example 104, 2-((4-(3-(4-cyano-2-fluorobenzyloxy)phenyl)-2-oxopyridin-1(2H)-yl)methyl)-1-(2-methoxyethyl)-1H-benzo[d]imidazole-6-carboxylic acid]",240 nM,8.69%
"O=C(O)c1ccc2nc(Cc3ccc(-c4cccc(OCc5ccc(Cl)cc5F)n4)cc3F)n(C[C@@H]3CCO3)c2c1 [Example 78, (S)-2-(4-(6-(4-chloro-2-fluorobenzyloxy)pyridin-2-yl)-2-fluorobenzyl)-1-(oxetan-2-ylmethyl)-1H-benzo[d]imidazole-6-carboxylic acid]",–,-17.9%
"COCCn1c(Cc2ccc(-c3cccc(OCc4ccc(Cl)cc4F)n3)cc2F)nc2ccc(C(=O)O)cc21 [Example 3, 2-(4-(6-(4-chloro-2-fluorobenzyloxy)pyridin-2-yl)-2-fluorobenzyl)-1-(2-methoxyethyl)-1H-benzo[d]imidazole-6-carboxylic acid]",32 nM,8.39%
"O=C(O)c1ccc2nc(Cn3cc(-c4cccc(OCc5ccc(Cl)cc5F)n4)cn3)n(C[C@@H]3CCO3)c2c1 [Example 131, (S)-2-((4-(6-((4-chloro-2-fluorobenzyl)oxy)pyridin-2-yl)-1H-pyrazol-1-yl)methyl)-1-(oxetan-2-ylmethyl)-1H-benzo[d]imidazole-6-carboxylic acid]",1600 nM,-0.97%
"O=C(O)c1ccc2nc(Cc3cc(F)c(-c4cccc(OCc5ccc(Cl)cc5F)n4)cc3F)n(C[C@@H]3CCCO3)c2c1 [Example 116, (S)-2-(4-(6-((4-chloro-2-fluorobenzyl)oxy)pyridin-2-yl)-2,5-difluorobenzyl)-1-((tetrahydrofuran-2-yl)methyl)-1H-benzo[d]imidazole-6-carboxylic acid]",< 3.2 nM,5.86%
"O=C(O)c1ccc2nc(Cc3ccc(-c4cccc(OCc5ccc(Cl)cc5F)n4)cc3)n(CC3CCCO3)c2c1 (stereo not drawn) [Example 10, 2-(4-(6-(4-chloro-2-fluorobenzyloxy)pyridin-2-yl)benzyl)-1-((tetrahydrofuran-2-yl)methyl)-1H-benzo[d]imidazole-6-carboxylic acid]",24 nM,-7.54%
"N#Cc1ccc(COc2cccc(-c3ccc(Cc4nc5ccc(C(=O)O)cc5n4CC4CCCO4)cc3)c2)c(F)c1 (stereo not drawn) [Example 8, 2-((3′-(4-cyano-2-fluorobenzyloxy)biphenyl-4-yl)methyl)-1-((tetrahydrofuran-2-yl)methyl)-1H-benzo[d]imidazole-6-carboxylic acid]",120 nM,4.01%
"COCCn1c(Cc2ccc(-c3cccc(OCc4ccc(Cl)cc4F)n3)cc2)nc2ccc(C(=O)O)cc21 [Example 2, 2-(4-(6-(4-chloro-2-fluorobenzyloxy)pyridin-2-yl)benzyl)-1-(2-methoxyethyl)-1H-benzo[d]imidazole-6-carboxylic acid]",63 nM,-11.9%
"COCCn1c(Cc2ccc(-c3cccc(OCc4ccc(C#N)cc4F)c3)cc2F)nc2ccc(C(=O)O)cc21 [Example 26, 2-((3′-(4-cyano-2-fluorobenzyloxy)-3-fluorobiphenyl-4-yl)methyl)-1-(2-methoxyethyl)-1H-benzo[d]imidazole-6-carboxylic acid]",270 nM,2.43%
"COCCn1c(Cc2ccc(-c3cccc(OCc4ccc(C#N)cc4F)n3)cc2C)nc2ccc(C(=O)O)cc21 [Example 54, 2-(4-(6-(4-cyano-2-fluorobenzyloxy)pyridin-2-yl)-2-methylbenzyl)-1-(2-methoxyethyl)-1H-benzo[d]imidazole-6-carboxylic acid]",110 nM,36.5%
"N#Cc1ccc(COc2cccc(-c3ccc(Cc4nc5ccc(C(=O)O)cc5n4Cc4ccco4)c(F)c3)n2)c(F)c1 [Example 19, 2-(4-(6-(4-cyano-2-fluorobenzyloxy)pyridin-2-yl)-2-fluorobenzyl)-1-(furan-2-ylmethyl)-1H-benzo[d]imidazole-6-carboxylic acid]",40 nM,1.8%
"N#Cc1ccc(COc2cccc(-c3cc(F)c(Cc4nc5ccc(C(=O)O)cc5n4C[C@@H]4CCO4)cc3F)n2)c(F)c1 [Example 115, (S)-2-(4-(6-((4-cyano-2-fluorobenzyl)oxy)pyridin-2-yl)-2,5-difluorobenzyl)-1-(oxetan-2-ylmethyl)-1H-benzo[d]imidazole-6-carboxylic acid]",< 3.2 nM,-2.45%
"O=C(O)c1ccc2nc(Cc3ccc(-c4cccc(OCc5ccc(Cl)cc5)n4)cc3F)n(CC3CCCO3)c2c1 (stereo not drawn) [Example 75, 2-(4-(6-(4-chlorobenzyloxy)pyridin-2-yl)-2-fluorobenzyl)-1-((tetrahydrofuran-2-yl)methyl)-1H-benzo[d]imidazole-6-carboxylic acid]",23 nM,-7.98%
"O=C(O)c1ccc2nc(Cc3ccc(-c4cccc(OCc5cccnc5)n4)c(F)c3)n(C[C@@H]3CCO3)c2c1 [Example 129, (S)-2-(3-fluoro-4-(6-(pyridin-3-ylmethoxy)pyridin-2-yl)benzyl)-1-(oxetan-2-ylmethyl)-1H-benzo[d]imidazole-6-carboxylic acid]",490 nM,-6.27%
"Cc1ccc(COc2cccc(-c3ccc(Cc4nc5ccc(C(=O)O)cc5n4CC4CCCO4)c(F)c3)n2)cc1 (stereo not drawn) [Example 76, 2-(2-fluoro-4-(6-(4-methylbenzyloxy)pyridin-2-yl)benzyl)-1-((tetrahydrofuran-2-yl)methyl)-1H-benzo[d]imidazole-6-carboxylic acid]",38 nM,-0.5%
"O=C(O)c1ccc2nc(Cc3ccc(-c4cccc(OCc5ccc(Cl)cc5F)n4)cc3)n(Cc3cccnc3)c2c1 [Example 1, 2-(4-(6-(4-chloro-2-fluorobenzyloxy)pyridin-2-yl)benzyl)-1-(pyridin-3-ylmethyl)-1H-benzo[d]imidazole-6-carboxylic acid]",10 nM,1.26%
"O=C(O)c1ccc2nc(Cc3ccc(-c4ccc(F)c(OCc5ccc(Cl)cc5F)c4)c(F)c3)n(CC3CCCO3)c2c1 (stereo not drawn) [Example 92, 2-((3′-(4-chloro-2-fluorobenzyloxy)-2,4′-difluorobiphenyl-4-yl)methyl)-1-((tetrahydrofuran-2-yl)methyl)-1H-benzo[d]imidazole-6-carboxylic acid]",78 nM,8.68%
"COc1cccc(COc2cccc(-c3ccc(Cc4nc5ccc(C(=O)O)cc5n4Cc4ccco4)nc3)c2)c1 [Example 23, 1-(furan-2-ylmethyl)-2-((5-(3-(3-methoxybenzyloxy)phenyl)pyridin-2-yl)methyl)-1H-benzo[d]imidazole-6-carboxylic acid]",610 nM,-6.89%
"N#Cc1ccc(COc2cccc(-c3ccc(Cc4nc5ccc(C(=O)O)cc5n4CCF)c(F)c3)c2)c(F)c1 [Example 57, 2-((3′-(4-cyano-2-fluorobenzyloxy)-3-fluorobiphenyl-4-yl)methyl)-1-(2-fluoroethyl)-1H-benzo[d]imidazole-6-carboxylic acid]",850 nM,6.42%
"O=C(O)c1ccc2nc(Cc3ccc(-c4ccc(F)c(OCc5ccc(Cl)cc5F)c4)cc3F)n(CC3CCCO3)c2c1 (stereo not drawn) [Example 95, 2-((3′-(4-chloro-2-fluorobenzyloxy)-3,4′-difluorobiphenyl-4-yl)methyl)-1-((tetrahydrofuran-2-yl)methyl)-1H-benzo[d]imidazole-6-carboxylic acid]",100 nM,-38.2%
"O=C(O)c1ccc2nc(Cc3ccc(-c4cccc(OCc5ccc(Cl)cc5)n4)c(F)c3)n(CC3CCCO3)c2c1 (stereo not drawn) [Example 94, 2-(4-(6-(4-chlorobenzyloxy)pyridin-2-yl)-3-fluorobenzyl)-1-((tetrahydrofuran-2-yl)methyl)-1H-benzo[d]imidazole-6-carboxylic acid]",–,18.9%
"O=C(O)c1ccc2nc(Cc3ccc(-c4cccc(OCC5CC5)n4)c(F)c3)n(C[C@@H]3CCO3)c2c1 [Example 135, (S)-2-(4-(6-(cyclopropylmethoxy)pyridin-2-yl)-3-fluorobenzyl)-1-(oxetan-2-ylmethyl)-1H-benzo[d]imidazole-6-carboxylic acid]",–,-14%
"N#Cc1ccc(COc2cccc(-c3ccc(Cc4nc5ccc(C(=O)O)cc5n4C[C@@H]4CCO4)c(F)c3)n2)c(F)c1 [Example 73, (S)-2-(4-(6-(4-cyano-2-fluorobenzyloxy)pyridin-2-yl)-2-fluorobenzyl)-1-(oxetan-2-ylmethyl)-1H-benzo[d]imidazole-6-carboxylic acid]",–,-14.6%
